This is an account of results in ChEMBL document CHEMBL5131489, “Linotrins: Omega-3 oxylipins featuring an E,Z,E conjugated triene motif are present in the plant kingdom and alleviate inflammation in LPS-challenged microglial cells” (2022).

In assay [1] the test system is BV-2. Description: Antiinflammatory activity against LPS-stimulated C57BL/6 mouse microglial BV-2 cells assessed as reduction in cellular content of IL-1 beta level at 30 umol/L pretreated for 3 hrs followed by LPS stimulation and measured after 24 hrs by AlphaLISA assay. The format is functional, cell-based. The following applies: dose 30.0 µmol/L, time 27.0 hrs.

In assay [2] the test system is BV-2. Description: Antiinflammatory activity in C57BL/6 mouse microglial BV-2 cells assessed as reduction in LPS-induced TNF-alpha release at 30 umol/L pretreated for 3 hrs followed by LPS stimulation and measured after 6 hrs by AlphaLISA assay. Type of assay: functional. The following applies: C57BL/6, BV-2, 9 h, dose 30 µmol/L.
The subject of assay [3] is BV-2. Description: Antiinflammatory activity in C57BL/6 mouse microglial BV-2 cells assessed as reduction in LPS-induced TNF-alpha release at 30 umol/L pretreated for 3 hrs followed by LPS stimulation and measured after 24 hrs by AlphaLISA assay. The format is functional. The following applies: C57BL/6, BV-2, 27 h, dose 30 µmol/L.
Assay [4] relates to BV-2. As to the kind of experiment: Antiinflammatory activity against LPS-stimulated C57BL/6 mouse microglial BV-2 cells assessed as reduction in cellular content of TNF-alpha level at 30 umol/L pretreated for 3 hrs followed by LPS stimulation and measured after 6 hrs by AlphaLISA assay. Type of assay: functional, cell-based. The following applies: dose 30.0 µmol/L, time 9.0 hrs.

Assay [5] relates to BV-2. Description: Antiinflammatory activity in C57BL/6 mouse microglial BV-2 cells assessed as reduction in LPS induced IL-1 beta mRNA expression level at 30 umol/L pretreated for 3 hrs followed by LPS stimulation and measured after 24 hrs by qRT-PCR analysis. The following applies: dose 30.0 µmol/L, time 27.0 hrs. The format is functional, cell-based.
Assay [6] has as its system BV-2. Description: Antiinflammatory activity against LPS-stimulated C57BL/6 mouse microglial BV-2 cells assessed as reduction in cellular content of IL-6 level at 30 umol/L pretreated for 3 hrs followed by LPS stimulation and measured after 6 hrs by AlphaLISA assay. The format is functional, cell-based. The following applies: dose 30.0 µmol/L, time 9.0 hrs.
In assay [7] the test system is BV-2. As to the kind of experiment: Antiinflammatory activity in C57BL/6 mouse microglial BV-2 cells assessed as reduction in LPS-induced IL-6 release at 30 umol/L pretreated for 3 hrs followed by LPS stimulation and measured after 24 hrs by AlphaLISA assay. The following applies: C57BL/6, BV-2, 27 h, dose 30 µmol/L. The format is functional.
In assay [8] the test system is BV-2. Description: Antiinflammatory activity in C57BL/6 mouse microglial BV-2 cells assessed as reduction in LPS induced IL-6 mRNA expression level at 30 umol/L pretreated for 3 hrs followed by LPS stimulation and measured after 24 hrs by qRT-PCR analysis. The format is functional, cell-based. The following applies: dose 30.0 µmol/L, time 27.0 hrs.
In assay [9] the test system is BV-2. Description: Antiinflammatory activity in C57BL/6 mouse microglial BV-2 cells assessed as reduction in LPS-induced IL-6 release at 30 umol/L pretreated for 3 hrs followed by LPS stimulation and measured after 6 hrs by AlphaLISA assay. Type of assay: functional. The following applies: C57BL/6, BV-2, 9 h, dose 30 µmol/L.
Assay [10] concerns BV-2. As to the kind of experiment: Antiinflammatory activity against LPS-stimulated C57BL/6 mouse microglial BV-2 cells assessed as reduction in cellular content of TNF-alpha level at 30 umol/L pretreated for 3 hrs followed by LPS stimulation and measured after 24 hrs by AlphaLISA assay. The format is functional, cell-based. The following applies: dose 30.0 µmol/L, time 27.0 hrs.

The subject of assay [11] is BV-2. Description: Antiinflammatory activity against LPS-stimulated C57BL/6 mouse microglial BV-2 cells assessed as reduction in cellular content of IL-6 level at 30 umol/L pretreated for 3 hrs followed by LPS stimulation and measured after 24 hrs by AlphaLISA assay. The format is functional, cell-based. The following applies: dose 30.0 µmol/L, time 27.0 hrs.

The source made the active and inactive calls. The rule behind the calls is not given here.

In the case of `CCC(O)/C=C/C=C\C=C\[C@H](O)CCCCCCCC(=O)O` (mixture of isomers), the outcome in assay [1], in [4], in [5], in assay [6], in [8] and in assay [10] was Active. In [11], the outcome was Active. The inhibition at 30 µM in assay [2] came out at 14.1%; in assay [3] it was 22.7%; in assay [7] it was 30.5%; in assay [9], 20.8%.
